As a reminder, the Tmax is the time at which the peak concentration occurs. As usually defined, the AUC(0-t) is the area under the concentration-time curve up to a stated or last time point. Read a low AUC(0-t) as less exposure. Usually Cmax stands for the highest concentration seen after dosing. For orientation: half-life means the time in which the quantity being followed falls by half.

This data set can be described thus: Pharmacokinetics of THC and CBD after oral MC formulation (Example 3). Particulars: for Tmax / AUC(0-t) / Cmax / half-life: human, plasma; for dose response of Cmax and AUC0-8 with increasing doses: oral doses 2.5 to 12.5 mg.
Where [1] appears, read: high fat meal 30 minutes before 2.5 mg dose versus fasted.
Where [2] appears, read: oral, delay of Tmax by high fat meal, high fat meal 30 minutes before 2.5 mg dose versus fasted.
[3] abbreviates: po, AUC0-8, 2.5 mg: single oral dose 2.5 mg THC/2.5 mg CBD after 12 hour fast (day 1).
Where [4] appears, read: po, AUC0-8, 5 mg: single oral dose 5 mg THC/5 mg CBD.
Setting [5] is: po, AUC0-8, 7.5 mg: single oral dose 7.5 mg THC/7.5 mg CBD.
The mark [6] stands for this setting: po, 2.5 mg fed: single oral dose 2.5 mg THC/2.5 mg CBD 30 minutes after high fat meal (day 8).
Setting [7] is: po, 2.5 mg: single oral dose 2.5 mg THC/2.5 mg CBD after 12 hour fast (day 1).
[8] abbreviates: po, 5 mg: single oral dose 5 mg THC/5 mg CBD.
The mark [9] stands for this setting: po, 7.5 mg: single oral dose 7.5 mg THC/7.5 mg CBD.
Setting [10] is: po, Tmax, 2.5 mg fed: single oral dose 2.5 mg THC/2.5 mg CBD 30 minutes after high fat meal (day 8).
The mark [11] stands for this setting: po, Tmax, 2.5 mg: single oral dose 2.5 mg THC/2.5 mg CBD after 12 hour fast (day 1).
The mark [12] stands for this setting: po, Tmax, 5 mg: single oral dose 5 mg THC/5 mg CBD.
Where [13] appears, read: po, Tmax, 7.5 mg: single oral dose 7.5 mg THC/7.5 mg CBD.
Where [14] appears, read: po, t½ (did not change with increasing dose), across doses 2.5 to 12.5 mg.
The mark [15] stands for this setting: po, t½, 2.5 mg fed: single oral dose 2.5 mg THC/2.5 mg CBD 30 minutes after high fat meal (day 8).
Where [16] appears, read: po, t½, 2.5 mg: single oral dose 2.5 mg THC/2.5 mg CBD after 12 hour fast (day 1).
Setting [17] is: po, t½, 5 mg: single oral dose 5 mg THC/5 mg CBD.
Where [18] appears, read: po, t½, 7.5 mg: single oral dose 7.5 mg THC/7.5 mg CBD.

In the case of `C=C(C)[C@@H]1CCC(C)=C[C@H]1c1c(O)cc(CCCCC)cc1O` [CBD, cannabidiol], the “dose response of Cmax and AUC0-8 with increasing doses” value is listed as “linear dose response relationship”. Besides, under setting [1], the “effect of high fat meal on Cmax and AUC0-8” value is listed as “significantly increased”. In addition, the Tmax under setting [2] was not below 1 h. Where the note is “po, AUC0-8, 2.5 mg fed: single oral dose 2.5 mg THC/2.5 mg CBD 30 minutes after high fat meal (day 8)”, this compound showed an exposure AUC(0-t) of 3.67 ng·h/mL. This compound also had an area under the curve AUC(0-t) under setting [3] of 1.76 ± 0.84 ng·h/mL. Also, under setting [4], the exposure AUC(0-t) came out at 5.09 ± 1.8 ng·h/mL. The compound also came in with an AUC(0-t) under setting [5] of 7.47 ± 2.95 ng·h/mL. This compound registered a Cmax under setting [6] of 0.99 ± 0.45 ng/mL. Moreover, the peak level under setting [7] (Cmax) was 0.62 ± 0.19 ng/mL. The highest level under setting [8] (Cmax) was 1.51 ± 0.55 ng/mL. Under setting [9], this compound gave a maximum concentration (Cmax) of 2.26 ± 0.95 ng/mL. For the same compound, under setting [10], the Tmax was 2.78 h. Further, the Tmax under setting [11] is 1.83 ± 1 h. The time of peak concentration (Tmax) under setting [12] turned out to be 1.75 ± 1.04 h. The Tmax under setting [13] came to 1.64 ± 1.18 h. Under setting [14], this compound had a half-life of 3.6 h. In addition, the half-life under setting [15] was 2.95 ± 0.66 h. Moreover, the half-life under setting [16] was 4.25 ± 0.54 h. Further, the half-life under setting [17] was 4.54 ± 2.41 h. For the same compound, the half-life under setting [18] was 3.47 ± 0.86 h.
As for `CCCCCc1cc(O)c2c(c1)OC(C)(C)[C@@H]1CCC(C)=C[C@@H]21` [THC, Δ^9-tetrahydrocannabinol], the “dose response of Cmax and AUC0-8 with increasing doses” value is on record as “linear dose response relationship”. Besides, the AUC0-8 (2.5 mg fed: single oral dose 2.5 mg THC/2.5 mg CBD 30 minutes after high fat meal (day 8)) is given as 5.86 ± 2.07 (9) ng/mL*h. The “effect of high fat meal on Cmax and AUC0-8” value under setting [1] is “significantly increased”. Also, under setting [2], the time to peak (Tmax) is not below 1 h. In addition, the exposure AUC(0-t) under setting [3] was 2 ± 1.38 ng·h/mL. This compound also yielded an AUC(0-t) under setting [4] of 6.04 ± 2.07 ng·h/mL. Besides, under setting [5], the AUC(0-t) was found to be 10.6 ± 3.84 ng·h/mL. Also, the Cmax under setting [6] worked out at 1.52 ± 0.55 ng/mL. The same compound gave a Cmax under setting [7] of 0.83 ± 0.29 ng/mL. Besides, under setting [8], the highest concentration (Cmax) was 2.56 ± 1.7 ng/mL. The compound further returned a Cmax under setting [9] of 3.84 ± 1.62 ng/mL. For the same compound, the time to peak (Tmax) under setting [10] was found to be 2.78 ± 1.2 h. Also, the time of peak concentration (Tmax) under setting [11] stood at 1.67 ± 1.09 h. Further, the time of peak concentration (Tmax) under setting [12] was determined as 2.06 ± 1.32 h. Besides, the time to peak (Tmax) under setting [13] worked out at 1.36 ± 0.63 h. Under setting [14], the half-life was 2.5 h. The compound also had a half-life under setting [15] of 2.63 ± 0.43 h. Moreover, under setting [16], the half-life was 2.6 ± 0.53 h. The half-life under setting [17] was 2.47 ± 0.88 h. The compound also showed a half-life under setting [18] of 2.41 ± 0.62 h.

These data come from patent publication US20230218566A1, “Composition and Method for Treating Chronic Pain” (Zelira Therapeutics Operations Pty Ltd, priority 2020, published 2023).
